Laboratory results reported in patent US20240360126A1, “PYRAZOLO[3,4-B]PYRIDINE COMPOUNDS FOR THE TREATMENT OF AUTOIMMUNE DISEASE” (Hoffmann-La Roche Inc., priority 2021, published 2024).
pIC50: −log10 of the molar value.

Target: T1, human TLR7 (Homo sapiens, UniProt Q9NYK1)
T1 construct: host or cells: HEK293 (HEK-Blue hTLR7)
T1 sequence (Q9NYK1 27-1049): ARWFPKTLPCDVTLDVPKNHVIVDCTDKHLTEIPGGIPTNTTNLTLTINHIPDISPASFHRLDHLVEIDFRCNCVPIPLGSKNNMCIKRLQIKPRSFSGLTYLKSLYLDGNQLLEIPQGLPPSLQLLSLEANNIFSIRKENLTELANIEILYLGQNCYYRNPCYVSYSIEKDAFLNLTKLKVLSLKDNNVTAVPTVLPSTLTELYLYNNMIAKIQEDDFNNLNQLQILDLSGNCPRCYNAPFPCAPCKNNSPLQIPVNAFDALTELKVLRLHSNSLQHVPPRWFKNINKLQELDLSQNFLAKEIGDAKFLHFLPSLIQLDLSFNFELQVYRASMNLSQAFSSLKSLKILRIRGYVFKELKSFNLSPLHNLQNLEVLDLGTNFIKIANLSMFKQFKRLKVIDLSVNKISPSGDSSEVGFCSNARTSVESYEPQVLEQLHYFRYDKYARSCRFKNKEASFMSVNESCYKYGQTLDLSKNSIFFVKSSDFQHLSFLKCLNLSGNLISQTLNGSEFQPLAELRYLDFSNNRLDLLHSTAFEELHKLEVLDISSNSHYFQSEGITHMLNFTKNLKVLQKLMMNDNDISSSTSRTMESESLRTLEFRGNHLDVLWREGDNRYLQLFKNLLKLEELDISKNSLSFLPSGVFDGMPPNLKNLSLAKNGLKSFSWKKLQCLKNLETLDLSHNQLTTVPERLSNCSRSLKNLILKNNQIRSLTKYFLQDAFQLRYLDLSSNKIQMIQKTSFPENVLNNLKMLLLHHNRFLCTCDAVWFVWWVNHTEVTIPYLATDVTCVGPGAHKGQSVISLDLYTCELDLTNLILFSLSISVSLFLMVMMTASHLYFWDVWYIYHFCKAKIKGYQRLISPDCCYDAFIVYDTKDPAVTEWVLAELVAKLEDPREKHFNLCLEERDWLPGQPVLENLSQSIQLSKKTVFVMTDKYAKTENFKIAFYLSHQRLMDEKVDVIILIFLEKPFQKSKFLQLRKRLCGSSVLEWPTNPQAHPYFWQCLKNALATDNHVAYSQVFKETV
Experiment: HEK293-Blue-hTLR-7 cells assay
Assay type: cell-based
Settings: HEK293-Blue-hTLR7 cells, R848 stimulation, 20 hrs; read-out: HEK/hTLR7 IC50
Excerpt: A stable HEK293-Blue-hTLR-7 cell line was purchased from InvivoGen (Cat. #: hkb-htlr7, San Diego, California, USA). These cells were originally designed for studying the stimulation of human TLR7 by monitoring the activation of NF-κB. A SEAP (secreted embryonic alkaline phosphatase) reporter gene was placed under the control of the IFN-β minimal promoter fused to five NF-κB and AP-1-binding sites. The SEAP was induced by activating NF-κB and AP-1 via stimulating HEK-Blue hTLR7 cells with TLR7 ligands. Therefore the reporter expression was declined by TLR7 antagonist under the stimulation of a ligand, such as R848 (Resiquimod), for incubation of 20 hrs. The cell culture supernatant SEAP reporter activity was determined using QUANTI-Blue™ kit (Cat. #: rep-qbl, Invivogen, San Diego, Ca, USA) at a wavelength of 640 nm, a detection medium that turns purple or blue in the presence of alkaline phosphatase.
HEK293-Blue-hTLR7 cells were incubated at a density of 250,000-450,000 cells/mL in a volume of 170 μL in a 96-well plate in Dulbecco's Modified Eagle's medium (DMEM) containing 4.5 g/L glucose, 50 U/mL penicillin, […] streptomycin, […] Normocin, […] L-glutamine, 10% […] heat-inactivated fetal bovine serum with addition of 20 μL test compound in a serial dilution in the presence of final DMSO at 1% and 10 μL of 20 μM R848 in above DMEM, perform incubation under 37° C. in a CO2 incubator for 20 hrs. Then 20 μL of the supernatant from each well was incubated with 180 μL Quanti-blue substrate solution at 37° C. for 2 hrs and the absorbance was read at […] using a spectrophotometer. The signaling pathway that TLR7 activation leads to downstream NF-κB activation has been widely accepted, and therefore similar reporter assay was modified for evaluating TLR7 antagonist.

Row | SMILES | pIC50
1 | CO[C@H]1CN(c2ccc([C@H]3CCN(c4cc(C)nc5c4cnn5C)C[C@@H]3C)nc2)CC[C@@H]1N [Example 39, (3S,4S)-1-[6-[(3R,4S)-1-(1,6-dimethylpyrazolo[3,4-b]pyridin-4-yl)-3-methyl-4-piperidyl]-3-pyridyl]-3-methoxy-piperidin-4-amine] | 7.92
2 | Cc1cc(N2CCC(c3ncc(N4CCNCC4)cc3C)[C@H](C)C2)c2cnn(C)c2n1 (single isomer, unassigned) [Example 24, 1,6-dimethyl-4-[cis-3-methyl-4-(3-methyl-5-piperazin-1-yl-2-pyridyl)-1-piperidyl]pyrazolo[3,4-b]pyridine] | 7.09
3 | CO[C@@H]1CN(c2cnc([C@@H]3CCN(c4cc(C)nc5c4cnn5C)C[C@H]3C)c(C)c2)C[C@H]1N [Example 26, (3R,4R)-1-[6-[(3S,4R)-1-(1,6-dimethylpyrazolo[3,4-b]pyridin-4-yl)-3-methyl-4-piperidyl]-5-methyl-3-pyridyl]-4-methoxy-pyrrolidin-3-amine] | 7.92
4 | Cc1cc(N2CC[C@@H](c3ncc(N4CC[C@@H](N)[C@H](F)C4)cc3C)[C@H](C)C2)c2cnn(C)c2n1 [Example 31, (3R,4R)-1-[6-[(3S,4R)-1-(1,6-dimethylpyrazolo[3,4-b]pyridin-4-yl)-3-methyl-4-piperidyl]-5-methyl-3-pyridyl]-3-fluoro-piperidin-4-amine] | 8.30
5 | Cc1cc(N2CCC(c3ncc(N4CCNCC4)cc3C)CC2)c2cnn(C)c2n1 [Example 7, 1,6-dimethyl-4-[4-(3-methyl-5-piperazin-1-yl-2-pyridyl)-1-piperidyl]pyrazolo[3,4-b]pyridine] | 7.96
6 | Cc1cc(N2CC[C@@H](c3ncc(N4CCOC[C@@H](N)C4)cc3C)[C@H](C)C2)c2cnn(C)c2n1 [Example 28, (6S)-4-[6-[(3S,4R)-1-(1,6-dimethylpyrazolo[3,4-b]pyridin-4-yl)-3-methyl-4-piperidyl]-5-methyl-3-pyridyl]-1,4-oxazepan-6-amine] | 8.15
7 | Cc1cc(N2CC[C@@H](c3ccc(N4CCNCC4)cn3)[C@H](C)C2)c2cnn(C)c2n1 [Example 34, 1,6-dimethyl-4-[(3S,4R)-3-methyl-4-(5-piperazin-1-yl-2-pyridyl)-1-piperidyl]pyrazolo[3,4-b]pyridine] | 7.09
8 | Cc1cc(N2CC[C@@H](c3ncc(N4C[C@H]5NCCO[C@@H]5C4)cc3C)[C@H](C)C2)c2cnn(C)c2n1 [Example 33, (4aR,7aR)-6-[6-[(3S,4R)-1-(1,6-dimethylpyrazolo[3,4-b]pyridin-4-yl)-3-methyl-4-piperidyl]-5-methyl-3-pyridyl]-3,4,4a,5,7,7a-hexahydro-2H-pyrrolo[3,4-b][1,4]oxazine] | 7.96
9 | Cc1cc(N2CC[C@@H](c3ncc(N4CC(C)(N)C4)cc3C)[C@H](C)C2)c2cnn(C)c2n1 [Example 32, 1-[6-[(3S,4R)-1-(1,6-dimethylpyrazolo[3,4-b]pyridin-4-yl)-3-methyl-4-piperidyl]-5-methyl-3-pyridyl]-3-methyl-azetidin-3-amine] | 8.10
10 | Cc1cc(N2CCC(c3cnc(N4CCNCC4)cc3C)CC2)c2cnn(C)c2n1 [Example 8, 1,6-dimethyl-4-[4-(4-methyl-6-piperazin-1-yl-3-pyridyl)-1-piperidyl]pyrazolo[3,4-b]pyridine] | 7.28

Further compounds by rising pIC50, results first:

Row | pIC50 | SMILES
11 | 7.28 | Cc1cc(N2CCC(c3ccc(N4CCNCC4)cc3)CC2)c2cnn(C)c2n1 [Example 1, 1,6-dimethyl-4-[4-(4-piperazin-1-ylphenyl)-1-piperidyl]pyrazolo[3,4-b]pyridine]
12 | 7.59 | CCc1cc(N2CCNCC2)cnc1C1CCN(c2cc(C)nc3c2cnn3C)CC1 [Example 13, 4-[4-(3-ethyl-5-piperazin-1-yl-2-pyridyl)-1-piperidyl]-1,6-dimethyl-pyrazolo[3,4-b]pyridine]
13 | 7.80 | Cc1cc(N2CCC(c3cnc(N4CCNCC4)cc3C)[C@H](C)C2)c2cnn(C)c2n1 (single isomer, unassigned) [Example 21, 1,6-dimethyl-4-[trans-3-methyl-4-(4-methyl-6-piperazin-1-yl-3-pyridyl)-1-piperidyl]pyrazolo[3,4-b]pyridine]
14 | 8.05 | Cc1cc(N2CCC(c3ncc(N4CCNCC4)cc3C)[C@H](C)C2)c2cnn(C)c2n1 (single isomer, unassigned) [Example 25, 1,6-dimethyl-4-[trans-3-methyl-4-(3-methyl-5-piperazin-1-yl-2-pyridyl)-1-piperidyl]pyrazolo[3,4-b]pyridine]
